This is an account of results in PubChem BioAssay AID1259411 (Chemical Carcinogenesis Research Information System (CCRIS), 2018).

The test system of this data set is rodent carcinogenicity bioassays, tumor incidence. Nature of the data set: CCRIS carcinogenicity studies. The note with it: Route: ORAL, Dose: 0, Dose: 0. The method, boiled down:
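NCI-built, expert-reviewed records of carcinogenicity and related test outcomes (mutagenicity, tumor promotion/inhibition) compiled from published and report sources, historical span 1985-2011, not updated.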

Each structure is given as a SMILES string. Activity calls are given as the source filed them. The rule behind the calls is not given here.

On to `[Cl][Sn][Cl]`, for which the carcinogen call is, setting by setting: (Species: MOUSE, Strain/Sex: B6C3F1/FEMALE, 1000, 2000 PPM IN DIET FOR 105 WK (STUDY DURATION: 105 WK), 1000, 2000 PPM IN DIET FOR 105 WK (STUDY DURATION: 105 WK)) “inactive; negative”; (Species: MOUSE, Strain/Sex: B6C3F1/MALE, 1000, 2000 PPM IN DIET FOR 105 WK (STUDY DURATION: 105 WK), 1000, 2000 PPM IN DIET FOR 105 WK (STUDY DURATION: 105 WK)) “inactive; negative”; (Species: RAT, Strain/Sex: F344/FEMALE, 1000, 2000 PPM IN DIET FOR 105 WK (STUDY DURATION: 105 WK), 1000, 2000 PPM IN DIET FOR 105 WK (STUDY DURATION: 105 WK)) “inactive; negative”; (Species: RAT, Strain/Sex: F344/MALE, 1000, 2000 PPM IN DIET FOR 105 WK (STUDY DURATION: 105 WK), 1000, 2000 PPM IN DIET FOR 105 WK (STUDY DURATION: 105 WK), Tumor Site: Type of Lesion: THYROID GLAND: C-CELL ADENOMA, C-CELL ADENOMA OR CARCINOMA) “equivocal”.
Regarding `O=C1c2cccc(O)c2C(=O)c2c(O)cccc21`, the carcinogen call was “active; positive” (Species: MOUSE, Strain/Sex: C3H/HEN/MALE, 0.2% IN DIET FOR DURATION OF STUDY (STUDY DURATION: 540 D), Tumor Site: Type of Lesion: LIVER: HEPATOCELLULAR CARCINOMA) and “active; positive” (Species: RAT, Strain/Sex: ACI/MALE, 1% IN DIET FOR DURATION OF STUDY (STUDY DURATION: 16 MO), Tumor Site: Type of Lesion: INTESTINE: ADENOMA OR CARCINOMA).
Consider `c1ccc(NNc2ccccc2)cc1`, for which the carcinogen call is “active; positive” (Species: MOUSE, Strain/Sex: B6C3F1/FEMALE, 0.004, 0.04% TWA, IN DIET FOR 78 WK (STUDY DURATION: 95-96 WK), 0.004, 0.04% TWA, IN DIET FOR 78 WK (STUDY DURATION: 95-96 WK), Tumor Site: Type of Lesion: LIVER: HEPATOCELLULAR ADENOMA OR CARCINOMA); “inactive; negative” (Species: MOUSE, Strain/Sex: B6C3F1/MALE, 0.008, 0.04% TWA, IN DIET FOR 78 WK (STUDY DURATION: 85 WK), 0.008, 0.04% TWA, IN DIET FOR 78 WK (STUDY DURATION: 85 WK)); “active; positive” (Species: RAT, Strain/Sex: F344/FEMALE, 0.004, 0.01% TWA, IN DIET FOR 78 WK (STUDY DURATION: 107-108 WK), 0.004, 0.01% TWA, IN DIET FOR 78 WK (STUDY DURATION: 107-108 WK), Tumor Site: Type of Lesion: LIVER: NEOPLASTIC NODULE); “active; positive” (Species: RAT, Strain/Sex: F344/MALE, 0.008, 0.03% TWA, IN DIET FOR 78 WK (STUDY DURATION: 106-107 WK), 0.008, 0.03% TWA, IN DIET FOR 78 WK (STUDY DURATION: 106-107 WK), Tumor Site: Type of Lesion: LIVER: NEOPLASTIC NODULE OR HEPATOCELLULAR CARCINOMA, ADRENAL GLAND: PHEOCHROMOCYTOMA OR MALIGNANT PHEOCHROMOCYTOMA, EAR, Tumor Site: Type of Lesion: LIVER: NEOPLASTIC NODULE OR HEPATOCELLULAR CARCINOMA, ADRENAL GLAND: PHEOCHROMOCYTOMA OR MALIGNANT PHEOCHROMOCYTOMA, EAR).
Turning to `Nc1ccc(Cc2ccc(N)cc2)cc1`, the carcinogen call is, setting by setting: (Species: MOUSE, Strain/Sex: B6C3F1/FEMALE, 0.015, 0.03% IN DIET FOR 103 WK (STUDY DURATION: 104 WK), 0.015, 0.03% IN DIET FOR 103 WK (STUDY DURATION: 104 WK), Tumor Site: Type of Lesion: THYROID GLAND: FOLLICULAR ADENOMA, LIVER: HEPATOCELLULAR ADENOMA, LIVER: HEPATOCELLULAR CARCINOMA, Tumor Site: Type of Lesion: THYROID GLAND: FOLLICULAR ADENOMA, LIVER: HEPATOCELLULAR ADENOMA, LIVER: HEPATOCELLULAR CARCINOMA) “active; positive”; (Species: MOUSE, Strain/Sex: B6C3F1/FEMALE, 150, 300 PPM IN DRINKING WATER, 150, 300 PPM IN DRINKING WATER, Tumor Site: Type of Lesion: THYROID GLAND: FOLLICULAR CELL ADENOMA, CARCINOMA, LIVER: HEPATOCELLULAR ADENOMA, CARCINOMA, LYMPHATIC SYSTEM: MALIGNANT, Tumor Site: Type of Lesion: THYROID GLAND: FOLLICULAR CELL ADENOMA, CARCINOMA, LIVER: HEPATOCELLULAR ADENOMA, CARCINOMA, LYMPHATIC SYSTEM: MALIGNANT) “active; positive”; (Species: MOUSE, Strain/Sex: B6C3F1/MALE, 0.015, 0.03% IN DIET FOR 103 WK (STUDY DURATION: 104 WK), 0.015, 0.03% IN DIET FOR 103 WK (STUDY DURATION: 104 WK), Tumor Site: Type of Lesion: THYROID GLAND: FOLLICULAR ADENOMA, LIVER: HEPATOCELLULAR CARCINOMA) “active; positive”; (Species: MOUSE, Strain/Sex: B6C3F1/MALE, 150, 300 PPM IN DRINKING WATER, 150, 300 PPM IN DRINKING WATER, Tumor Site: Type of Lesion: THYROID GLAND: FOLLICULAR CELL ADENOMA, ADRENAL GLAND: PHEOCHROMOCYTOMA, LIVER: HEPATOCELLULAR ADENOMA, CARCINOMA, Tumor Site: Type of Lesion: THYROID GLAND: FOLLICULAR CELL ADENOMA, ADRENAL GLAND: PHEOCHROMOCYTOMA, LIVER: HEPATOCELLULAR ADENOMA, CARCINOMA) “active; positive”; (Species: RAT, Strain/Sex: F344/FEMALE, 0.015, 0.03% IN DIET FOR 103 WK (STUDY DURATION: 104 WK), 0.015, 0.03% IN DIET FOR 103 WK (STUDY DURATION: 104 WK), Tumor Site: Type of Lesion: THYROID GLAND: FOLLICULAR ADENOMA) “active; positive”; (Species: RAT, Strain/Sex: F344/FEMALE, 150, 300 PPM IN DRINKING WATER, 150, 300 PPM IN DRINKING WATER, Tumor Site: Type of Lesion: THYROID GLAND: FOLLICULAR CELL ADENOMA, CARCINOMA, C CELL ADENOMA, CARCINOMA) “active; positive”. For the same compound, the carcinogen call runs as follows: (Species: RAT, Strain/Sex: F344/MALE, 0.15, 0.03% IN DIET FOR 103 WK (STUDY DURATION: 104 WK), 0.15, 0.03% IN DIET FOR 103 WK (STUDY DURATION: 104 WK), Tumor Site: Type of Lesion: THYROID GLAND: FOLLICULAR CARCINOMA, LIVER: NEOPLASTIC NODULE) “active; positive”; (Species: RAT, Strain/Sex: F344/MALE, 150, 300 PPM IN DRINKING WATER, 150, 300 PPM IN DRINKING WATER, Tumor Site: Type of Lesion: THYROID GLAND: FOLLICULAR CELL ADENOMA, CARCINOMA, LIVER: NEOPLASTIC NODULE) “active; positive”.
In the case of `Cc1cc(C)nc(NS(=O)(=O)c2ccc(N)cc2)n1`, the carcinogen call runs as follows: (Species: RAT, Strain/Sex: F344/FEMALE, TRANS-PLACENTAL, 10, 40, 600 1200, 2400 PPM IN DIET FOR 24 MO (PARENTS FED 0; 10; 600; 1200; 2400 PPM RESPECTIVELY IN DIET) (STUDY DUR, 10, 40, 600 1200, 2400 PPM IN DIET FOR 24 MO (PARENTS FED 0; 10; 600; 1200; 2400 PPM RESPECTIVELY IN DIET) (STUDY DUR, Tumor Site: Type of Lesion: THYROID GLAND: FOLLICULAR CELL ADENOCARCINOMA) “active; positive”; (Species: RAT, Strain/Sex: F344/MALE, TRANS-PLACENTAL, 10, 40, 600 1200, 2400 PPM IN DIET FOR 24 MO (PARENTS FED 0; 10; 600; 1200; 2400 PPM RESPECTIVELY IN DIET) (STUDY DUR, 10, 40, 600 1200, 2400 PPM IN DIET FOR 24 MO (PARENTS FED 0; 10; 600; 1200; 2400 PPM RESPECTIVELY IN DIET) (STUDY DUR, Tumor Site: Type of Lesion: THYROID GLAND: FOLLICULAR CELL ADENOCARCINOMA) “active; positive”.
